The record followed here is ChEMBL document CHEMBL4431301, “The Medicinal Chemistry of Dengue Virus” (J Med Chem, 2016).

Data set [1] relates to dengue virus type 2. In words: Antiviral activity against Dengue virus 2 NGC infected in BHK21 cells assessed as reduction in viral titer after 48 hrs by plaque assay. It is filed as functional, organism-based. The settings on record: BHK-21, 48 h.
In data set [2] the test system is dengue virus type 2. Kind of data set: Antiviral activity against Dengue virus 2 NGC infected in human A549 cells assessed as reduction in viral envelope protein production after 48 hrs by CFI assay. The settings on record: A549, 48 h. It is filed as functional, organism-based.
Data set [3] relates to dengue virus type 3. Kind of data set: Antiviral activity against Dengue virus 3 H87 infected in BHK21 cells assessed as reduction in viral titer after 48 hrs by plaque assay. It is filed as functional, organism-based. The settings on record: H87, BHK-21, 48 h.
For data set [4], the system named is dengue virus type 4. In words: Antiviral activity against Dengue virus 4 H241 infected in BHK21 cells assessed as reduction in viral titer after 48 hrs by plaque assay. It is filed as functional, organism-based. Particulars: H241, BHK-21, 48 h.
In data set [5] the test system is dengue virus type 1. Kind of data set: Antiviral activity against Dengue virus 1 West Pacific infected in BHK21 cells assessed as reduction in viral titer after 48 hrs by plaque assay. It counts as functional, organism-based. Particulars: BHK-21, 48 h.
In data set [6] the test system is dengue virus type 3. In words: Antiviral activity against Dengue virus 3 P12-08 infected in african green monkey Vero cells assessed as reduction in virus replication after 72 hrs by foci-forming assay. It counts as functional, organism-based. Particulars: P12-08, Vero.
The subject of data set [7] is dengue virus type 4. Kind of data set: Antiviral activity against Dengue virus 4 P11-08 infected in african green monkey Vero cells assessed as reduction in virus replication after 72 hrs by foci-forming assay. It is filed as functional, organism-based. The settings on record: P11-08, Vero.
Data set [8] can be described thus: Cytotoxicity against african green monkey Vero cells after 72 hrs by MTT assay. It is filed as cell-based. The settings on record: chlorocebus sabaeus. (Formazan colour is commonly taken as a measure of viable cells.)
Data set [9] deals with dengue virus type 1. In words: Antiviral activity against Dengue virus 1 P03-08 infected in african green monkey Vero cells assessed as reduction in virus replication after 72 hrs by foci-forming assay. It counts as functional, organism-based. The settings on record: P03-08, Vero.
For data set [10], the system named is dengue virus type 2. Kind of data set: Antiviral activity against Dengue virus 2 NGC infected in african green monkey Vero cells assessed as reduction in virus replication after 72 hrs by foci-forming assay. It is filed as functional, organism-based.
The test system of data set [11] is dengue virus type 2. Kind of data set: Antiviral activity against Dengue virus 2 NGC infected in BHK21 cells assessed as reduction in virus replication after 24 hrs by renilla luciferase reporter gene assay. It counts as functional, organism-based. Particulars: BHK-21, 24 h. For orientation: A reporter such as luciferase makes a cellular process visible.
In data set [12] the target is T1, Genome polyprotein (dengue virus type 2, UniProt P29990). Kind of data set: Inhibition of the Dengue virus 2 NS2B-NS3 protease expressed in Escherichia coli BL21(DE3)-RIPL cells using Pyr-RTKR-AMC as substrate preincubated for 30 mins followed by addition of substrate.
T1 sequence (P29990 1346-1475 limits assumed): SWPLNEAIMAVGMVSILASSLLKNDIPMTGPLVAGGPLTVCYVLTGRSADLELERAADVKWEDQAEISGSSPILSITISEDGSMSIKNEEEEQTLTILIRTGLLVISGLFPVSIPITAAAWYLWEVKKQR
T1 sequence (P29990 1476-2093 limits assumed): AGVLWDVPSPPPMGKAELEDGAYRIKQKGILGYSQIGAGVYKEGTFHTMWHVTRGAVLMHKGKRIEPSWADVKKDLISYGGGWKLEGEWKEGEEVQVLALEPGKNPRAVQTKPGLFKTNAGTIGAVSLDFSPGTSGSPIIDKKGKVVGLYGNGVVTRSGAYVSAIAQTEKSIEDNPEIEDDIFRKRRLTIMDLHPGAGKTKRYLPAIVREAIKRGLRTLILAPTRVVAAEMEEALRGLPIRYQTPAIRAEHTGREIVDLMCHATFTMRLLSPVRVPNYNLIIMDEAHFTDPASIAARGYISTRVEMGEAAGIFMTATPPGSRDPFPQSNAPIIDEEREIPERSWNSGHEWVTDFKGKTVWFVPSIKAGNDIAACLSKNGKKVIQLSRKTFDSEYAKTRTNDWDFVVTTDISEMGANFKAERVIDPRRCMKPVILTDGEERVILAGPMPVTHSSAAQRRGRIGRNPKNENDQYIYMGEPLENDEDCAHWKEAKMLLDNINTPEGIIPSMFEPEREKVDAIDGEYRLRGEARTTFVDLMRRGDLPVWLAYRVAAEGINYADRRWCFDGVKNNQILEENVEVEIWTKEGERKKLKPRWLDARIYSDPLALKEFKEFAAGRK
Data set [13] can be described thus: Cytotoxicity against BHK21 cells assessed as cell viability after 24 hrs by ATP-Lite assay. It is filed as cell-based, Mesocricetus auratus, BHK-21. Particulars: hamster.
Data set [14] concerns dengue virus type 2. Kind of data set: Antiviral activity against Dengue virus 2 16681 infected in african green monkey Vero cells assessed as blockage of viral entry after 72 hrs by foci-forming assay. Particulars: Dengue virus, 16681, Vero. It is filed as functional, organism-based.
For data set [15], the system named is dengue virus type 3. In words: Antiviral activity against Dengue virus 3 H87 infected in african green monkey Vero cells assessed as blockage of viral entry after 72 hrs by foci-forming assay. It is filed as functional, organism-based.
Data set [16] relates to dengue virus type 4. Kind of data set: Antiviral activity against Dengue virus 4 H241 infected in african green monkey Vero cells assessed as blockage of viral entry after 72 hrs by foci-forming assay. It is filed as functional, organism-based.
Data set [17] deals with dengue virus type 1. In words: Antiviral activity against Dengue virus 1 Hawaii infected in african green monkey Vero cells assessed as blockage of viral entry after 72 hrs by foci-forming assay. It counts as functional, organism-based.
Data set [18] can be described thus: Cytotoxicity against BHK21 cells assessed as cell viability after 3 days by CellTiter Glo assay. It is filed as cell-based, Mesocricetus auratus, BHK-21. Particulars: hamster.
In data set [19] the test system is dengue virus type 2. In words: Antiviral activity against Dengue virus 2 NGC infected in BHK21 cells assessed as reduction in viral titer after 3 days by RT-PCR method. It counts as functional, organism-based. Particulars: BHK-21, 72 h.
The nature of data set [20]: Inhibition of envelope protein mediated membrane fusion in Dengue virus TSV01 infected in mosquito C6/36 cells assessed as trypsin degradation after 1 hr by SDS-PAGE method. Particulars: TSV01, C6/36, 1 h. It counts as cell-based.
A short description of data set [21]: Inhibition of envelope protein mediated membrane fusion in Dengue virus TSV01 infected in mosquito C6/36 cells after 1 hr by propidium iodide staining based fluorescence assay. The settings on record: TSV01, C6/36, 1 h. It is filed as cell-based.
The target of data set [22] is DEN4V NS2B-G4SG4NS3 serine protease (Dengue virus type 4, UniProt P09866). In words: Non-competitive inhibition of Dengue virus 4 NS3 helicase.
Data set [23] has as its system dengue virus type 2. Kind of data set: Antiviral activity against Dengue virus 2 NGC infected in african green monkey Vero cells preincubated with virus for 5 mins followed by cell infection for 5 mins by immunofluorescence analysis. It is filed as functional, organism-based.
In data set [24] the target is T1, Genome polyprotein. In words: Inhibition of Dengue virus 2 Taiwanese PL046 NS2B-NS3 protease using Ac-TTSTRR-pNA as substrate preincubated for 10 mins followed by addition of substrate measured after 2 hrs.

Each structure is given as a SMILES string.

For the compound `COc1ccc(-c2csc(NC(=O)c3cc(C(C)(C)C)cc(C(C)(C)C)c3)n2)cc1`, the EC50 (as a rule, the midpoint of the concentration-response curve) was 1.6 µM with dengue virus type 2 [1]; 1 µM in the data set on dengue virus type 2 [2]; 1 to 4.1 µM with dengue virus type 3 [3]; 1 to 4.1 µM in the data set with dengue virus type 4 [4]; 1 to 4.1 µM in the data set on dengue virus type 1 [5].

For the compound `Cc1ccc(S(=O)(=O)Nc2cc(SCC(=O)O)c(O)c3ccccc23)cc1[N+](=O)[O-]`, the EC50 is 2.43 µM in the data set with dengue virus type 3 [6], 0.74 µM in the data set with dengue virus type 4 [7], 0.97 µM with dengue virus type 1 [9] and 0.98 µM with dengue virus type 2 [10]. The CC50 (in general, the concentration that lowers cell viability or growth by half) at 72 h in data set [8] came out at 67.3 µM.

Consider `Nc1cc(N)c(/N=N/c2ccc(S(=O)(=O)Nc3nccs3)cc2)cc1/N=N/c1ccc(S(=O)(=O)Nc2nccs2)cc1`, for which, in the data set with dengue virus type 2 [11], the EC50 was determined as 39.9 µM. Further, on Genome polyprotein [12], the half-maximal inhibitory concentration (IC50) (in general, the midpoint of a concentration-inhibition curve) amounted to 2.75 µM. In [13], the 50% cytotoxic concentration (CC50) at 24 h was determined as 213 µM.

Take `CC[C@H](C)[C@H](NC(=O)[C@H](Cc1c[nH]c2ccccc12)NC(=O)[C@@H](NC(=O)[C@H](CCC(=O)O)NC(=O)[C@@H](NC(=O)[C@H](CCCNC(=N)N)NC(=O)[C@H](CCC(N)=O)NC(=O)[C@@H](NC(=O)[C@H](Cc1cnc[nH]1)NC(=O)[C@H](CCCCN)NC(=O)[C@H](Cc1c[nH]c2ccccc12)NC(=O)[C@H](C)NC(=O)CNC(=O)[C@H](CCC(=O)O)NC(=O)[C@H](CO)NC(=O)[C@H](CO)NC(=O)[C@H](CCSC)NC(=O)[C@H](Cc1c[nH]c2ccccc12)NC(=O)[C@@H](NC(=O)[C@H](CCC(=O)O)NC(=O)[C@@H](NC(=O)[C@H](CCCNC(=N)N)NC(=O)[C@@H](NC(=O)[C@H](CCC(=O)O)NC(=O)[C@H](CC(C)C)NC(=O)CNC(=O)[C@H](CCSC)NC(=O)CNC(=O)[C@@H](NC(=O)[C@H](Cc1cnc[nH]1)NC(=O)[C@@H]1CCCN1C(=O)[C@@H](NC(=O)[C@H](CC(C)C)NC(=O)[C@H](C)NC(=O)[C@@H](NC(=O)[C@@H](N)CO)C(C)C)C(C)C)C(C)C)[C@@H](C)O)[C@@H](C)O)[C@@H](C)O)C(C)C)[C@@H](C)CC)[C@H](C)O)C(=O)N[C@@H](CC(C)C)C(=O)N[C@@H](CCCNC(=N)N)C(=O)N[C@@H](Cc1cnc[nH]1)C(=O)N1CCC[C@H]1C(=O)NCC(=O)O`: the EC50 in the data set on dengue virus type 2 [14], with dengue virus type 3 [15], in the data set on dengue virus type 4 [16] and in the data set on dengue virus type 1 [17] was 24 to 31 µM each time.

Regarding `O=C(O)c1cc(=O)c2ccc(S[C@@H](/C=C/C=C\CCOc3ccc(Cl)c(Cl)c3)[C@H](O)c3cccc(C(F)(F)F)c3)cc2o1`, the CC50 at 72 h in [18] turned out to be 48.7 µM. Also, in the data set with dengue virus type 2 [19], the half-maximal effective concentration (EC50) was determined as 9.8 µM. In addition, the IC50 in data set [20] and in data set [21] was 6.8 µM throughout.

As to `Cc1ccc(C(=O)Nc2ccc(S(=O)(=O)O)c3cc(S(=O)(=O)O)cc(S(=O)(=O)O)c23)cc1NC(=O)c1cccc(NC(=O)Nc2cccc(C(=O)Nc3cc(C(=O)Nc4ccc(S(=O)(=O)O)c5cc(S(=O)(=O)O)cc(S(=O)(=O)O)c45)ccc3C)c2)c1` [SURAMIN], the affinity in data set [22], expressed as Ki, was 0.75 µM. Besides, a half-maximal effect with dengue virus type 2 [23] (EC50) was put at 40 µM.

Compound `CCCCCCCCCCCCCCCC[N+](CC)(CO)CO` had an IC50 on Genome polyprotein [24] of 22.6 µM.
